Assays:
Experiment in all cases: In vitro competitive activity-based protein profiling (gel-based, FP-Rh or HT-01 probe)
Type in all cases: biochemical
FAAH = target: T1, FAAH (Mus musculus, UniProt O08914); settings: for inhibition at 10 µM: 10 μM inhibitor, read-out: % Inhibition at 10 μM, B = FAAH; for inhibition at 1 µM: 1 μM inhibitor, read-out: % Inhibition at 1 μM, B = FAAH; for IC50: mouse brain membrane fraction or cell lysates, 30 min preincubation at 37° C., read-out: Mouse (IC50 value, nM) FAAH
T1 construct: Proteomes (mouse brain membrane fraction or cell lysates); from tissue; host or cells: mouse brain membrane fraction (or cell lysates, not specified)
T1 sequence (O08914 1-579): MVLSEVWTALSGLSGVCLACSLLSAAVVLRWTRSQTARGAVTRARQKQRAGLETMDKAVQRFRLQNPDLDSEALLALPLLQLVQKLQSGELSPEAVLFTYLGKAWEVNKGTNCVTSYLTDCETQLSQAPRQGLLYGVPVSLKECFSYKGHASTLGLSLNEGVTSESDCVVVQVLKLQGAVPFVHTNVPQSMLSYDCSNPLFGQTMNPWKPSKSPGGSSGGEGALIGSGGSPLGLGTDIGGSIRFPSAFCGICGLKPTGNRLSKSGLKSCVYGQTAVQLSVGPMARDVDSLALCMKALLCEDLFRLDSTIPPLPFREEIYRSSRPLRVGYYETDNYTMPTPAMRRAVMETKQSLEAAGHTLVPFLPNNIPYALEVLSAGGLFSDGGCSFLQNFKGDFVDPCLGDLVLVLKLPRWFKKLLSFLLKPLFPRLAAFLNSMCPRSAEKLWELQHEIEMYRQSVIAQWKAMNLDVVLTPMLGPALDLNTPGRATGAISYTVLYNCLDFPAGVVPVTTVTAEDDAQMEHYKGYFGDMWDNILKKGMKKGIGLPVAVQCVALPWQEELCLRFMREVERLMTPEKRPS
Outline: (§1)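 Gel-based read-out: fluorescent band intensity after SDS-PAGE reflected remaining hydrolase activity. Inhibitors were preincubated 30 min at 37° C with 1.0 mg/mL mouse brain membrane or lysate proteome before a further 30 min at 37° C with FP-Rh or HT-01 probe.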

ABHD6 = target: T2, ABHD6 (Mus musculus, UniProt Q8R2Y0); settings: for inhibition at 1 µM: 1 μM inhibitor, read-out: % Inhibition at 1 μM, C = ABHD6; for inhibition at 10 µM: 10 μM inhibitor, read-out: % Inhibition at 10 μM, C = ABHD6; for IC50: mouse brain membrane fraction or cell lysates, 30 min preincubation at 37° C., read-out: Mouse (IC50 value, nM) ABHD6
T2 construct: Proteomes (mouse brain membrane fraction or cell lysates); from tissue; host or cells: mouse brain membrane fraction (or cell lysates, not specified)
T2 sequence (Q8R2Y0 1-336): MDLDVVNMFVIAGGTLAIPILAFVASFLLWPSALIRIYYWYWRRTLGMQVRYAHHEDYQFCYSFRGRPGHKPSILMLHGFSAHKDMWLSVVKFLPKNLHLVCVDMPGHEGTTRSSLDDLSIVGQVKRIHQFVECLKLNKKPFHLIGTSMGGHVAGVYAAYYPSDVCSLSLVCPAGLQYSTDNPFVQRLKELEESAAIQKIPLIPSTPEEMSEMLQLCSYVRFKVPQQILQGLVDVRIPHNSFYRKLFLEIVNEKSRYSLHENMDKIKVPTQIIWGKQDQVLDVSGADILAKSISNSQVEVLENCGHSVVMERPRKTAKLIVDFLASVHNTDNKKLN
Outline: as §1

MAGL = target: T3, MAGL (Mus musculus, UniProt O35678); settings: for inhibition at 10 µM: 10 μM inhibitor; for inhibition at 1 µM: 1 μM inhibitor; for IC50: mouse brain membrane fraction or cell lysates, 30 min preincubation at 37° C., read-out: Mouse (IC50 value, nM) MAGL
T3 construct: Proteomes (mouse brain membrane fraction or cell lysates); from tissue; host or cells: mouse brain membrane fraction (or cell lysates, not specified)
T3 sequence (O35678 1-303): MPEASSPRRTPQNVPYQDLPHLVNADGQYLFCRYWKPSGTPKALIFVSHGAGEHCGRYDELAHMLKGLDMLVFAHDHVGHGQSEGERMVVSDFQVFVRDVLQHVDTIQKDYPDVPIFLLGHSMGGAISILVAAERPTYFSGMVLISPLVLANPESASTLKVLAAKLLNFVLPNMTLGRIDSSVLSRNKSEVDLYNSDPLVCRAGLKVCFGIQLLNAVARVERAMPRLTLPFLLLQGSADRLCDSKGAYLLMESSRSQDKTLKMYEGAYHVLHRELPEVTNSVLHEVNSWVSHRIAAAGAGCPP
Outline: as §1

PLA2G7 = target: T4, PLA2G7 (Mus musculus, UniProt Q60963); settings: for inhibition at 1 µM: 1 μM inhibitor, read-out: % Inhibition at 1 μM, D = PLA2G7; for inhibition at 10 µM: 10 μM inhibitor, read-out: % Inhibition at 10 μM, D = PLA2G7; for IC50: mouse brain membrane fraction or cell lysates, 30 min preincubation at 37° C.
T4 construct: Proteomes (mouse brain membrane fraction or cell lysates); from tissue; host or cells: mouse brain membrane fraction (or cell lysates, not specified)
T4 sequence (Q60963 22-440): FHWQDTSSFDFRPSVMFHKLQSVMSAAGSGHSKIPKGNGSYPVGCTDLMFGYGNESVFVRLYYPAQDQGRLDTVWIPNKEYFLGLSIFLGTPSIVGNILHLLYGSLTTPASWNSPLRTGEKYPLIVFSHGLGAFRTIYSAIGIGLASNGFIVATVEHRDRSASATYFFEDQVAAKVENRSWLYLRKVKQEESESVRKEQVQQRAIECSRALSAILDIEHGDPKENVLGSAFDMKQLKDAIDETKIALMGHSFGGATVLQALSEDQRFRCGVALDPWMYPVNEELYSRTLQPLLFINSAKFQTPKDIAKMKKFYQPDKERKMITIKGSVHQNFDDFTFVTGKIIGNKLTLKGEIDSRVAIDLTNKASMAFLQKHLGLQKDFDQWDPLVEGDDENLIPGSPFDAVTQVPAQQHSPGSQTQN
Outline: as §1

Row | Structure (SMILES) | inhibition at 10 µM (FAAH) [%] | inhibition at 1 µM (ABHD6) [%] | inhibition at 10 µM (ABHD6) [%] | inhibition at 10 µM (MAGL) [%] | inhibition at 1 µM (PLA2G7) [%] | inhibition at 10 µM (PLA2G7) [%] | inhibition at 1 µM (FAAH) [%] | inhibition at 1 µM (MAGL) [%] | IC50 (FAAH) [nM] | IC50 (ABHD6) [nM] | IC50 (MAGL) [nM] | IC50 (PLA2G7) [nM]
1 | O=C(c1cnn(C(=O)N2CCN(Cc3ccncn3)CC2)c1)N1CCOCC1 [Example 54, (4-(Morpholine-4-carbonyl)-1H-pyrazol-1-yl)(4-(pyrimidin-4-ylmethyl)piperazin-1-yl)methanone] | < 25 | < 25 | 25 to 75 | 25 to 75 | < 25 | > 75 |  |  |  |  |  | 
2 | O=C(c1cnn(C(=O)N2CCN(Cc3cncnc3)CC2)c1)N1CCCC1 [Example 84, (4-(Pyrimidin-5-ylmethyl)piperazin-1-yl)(4-(pyrrolidine-1-carbonyl)-1H-pyrazol-1-yl)methanone] | < 25 | < 25 | 25 to 75 | < 25 | < 25 | > 75 | < 25 | < 25 |  |  |  | 
3 | CN(CCN(C)S(C)(=O)=O)C(=O)n1cc(C(F)(F)F)cn1 [Example 195, N-Methyl-N-(2-(N-methylmethylsulfonamido)ethyl)-4-(trifluoromethyl)-1H-pyrazole-1-carboxamide] | > 75 | < 25 | > 75 | < 25 | < 25 | 25 to 75 | < 25 | < 25 |  |  |  | 
4 | Cc1cc(N2CCN(C(=O)n3cc(C(F)(F)F)cn3)CC2)c2ccccc2n1 [Example 210, (4-(2-Methylquinolin-4-yl)piperazin-1-yl)(4-(trifluoromethyl)-1H-pyrazol-1-yl)methanone] | > 75 | > 75 | > 75 | > 75 | 25 to 75 | > 75 | > 75 | > 75 | > 1000 | 100 to 1000 | < 100 | < 100
5 | O=C(c1cnn(C(=O)N2CCN(Cc3ccncn3)CC2)c1)N1CCC1 [Example 90, Azetidin-1-yl(1-(4-(pyrimidin-4-ylmethyl)piperazine-1-carbonyl)-1H-pyrazol-4-yl)methanone] | 25 to 75 | < 25 | > 75 | < 25 | < 25 | > 75 |  |  |  |  |  | 
6 | O=C(N1CCCCC1)n1cc(C(F)(F)F)cn1 [Example 200, Piperidin-1-yl(4-(trifluoromethyl)-1H-pyrazol-1-yl)methanone] | > 75 | > 75 | > 75 | > 75 | > 75 | > 75 | > 75 | > 75 | 100 to 1000 | 100 to 1000 | > 1000 | 100 to 1000
7 | O=C(N1CCN(Cc2cccnc2)CC1)n1cc(-c2ccccc2)cn1 [Example 60, (4-Phenyl-1H-pyrazol-1-yl)(4-(pyridin-3-ylmethyl)piperazin-1-yl)methanone] | > 75 | > 75 | > 75 | 25 to 75 | > 75 | > 75 |  |  |  | 100 to 1000 |  | 
8 | O=C(c1cnn(C(=O)N2CCN(Cc3ccccn3)CC2)c1)N1CCC1 [Example 89, Azetidin-1-yl(1-(4-(pyridin-2-ylmethyl)piperazine-1-carbonyl)-1H-pyrazol-4-yl)methanone] | > 75 |  | 25 to 75 | < 25 |  | > 75 |  |  |  |  |  | 
9 | CS(=O)(=O)N1CCN(C(=O)n2cc(C(F)(F)F)cn2)CC1 [Example 150, (4-(Methylsulfonyl)piperazin-1-yl)(4-(trifluoromethyl)-1H-pyrazol-1-yl)methanone] | 25 to 75 | > 75 | > 75 | 25 to 75 | > 75 | > 75 | < 25 | < 25 |  |  |  | 
10 | Cc1cnn(C(=O)N2CCCN(S(C)(=O)=O)CC2)c1 [Example 166, (4-Methyl-1H-pyrazol-1-yl)(4-(methylsulfonyl)-1,4-diazepan-1-yl)methanone] | < 25 |  | < 25 | < 25 |  | < 25 |  |  |  |  |  | 
11 | Cc1ccccc1N1CCN(C(=O)n2cc(C(F)(F)F)cn2)CC1 [Example 230, (4-o-Tolylpiperazin-1-yl)(4-(trifluoromethyl)-1H-pyrazol-1-yl)methanone] | > 75 | > 75 | > 75 | > 75 | > 75 | > 75 | > 75 | > 75 |  |  |  | 
12 | Cc1cc(N2CCN(C(=O)n3cc(-c4ccccc4)cn3)CC2)c2ccccc2n1 [Example 207, (4-(2-Methylquinolin-4-yl)piperazin-1-yl)(4-phenyl-1H-pyrazol-1-yl)methanone] | > 75 | > 75 | > 75 | > 75 | 25 to 75 | > 75 | > 75 | 25 to 75 |  |  |  | 
13 | O=C(N1CCCN(Cc2ccccc2)CC1)n1cc(Cl)cn1 [Example 191, (4-Benzyl-1,4-diazepan-1-yl)(4-chloro-1H-pyrazol-1-yl)methanone] | > 75 | 25 to 75 | > 75 | > 75 | < 25 | < 25 | > 75 | < 25 |  |  |  | 
14 | N#Cc1cnn(C(=O)N2CCCCC2)c1 [Example 3, 1-(Piperidine-1-carbonyl)-1H-pyrazole-4-carbonitrile] | > 75 | > 75 | > 75 | > 75 | > 75 | > 75 | > 75 | > 75 |  |  |  | 
15 | COc1ccc(N2CCN(C(=O)n3cc(C(F)(F)F)cn3)CC2)cc1 [Example 235, (4-(4-Methoxyphenyl)piperazin-1-yl)(4-(trifluoromethyl)-1H-pyrazol-1-yl)methanone] | > 75 | > 75 | > 75 | > 75 | > 75 | > 75 | > 75 | > 75 | < 100 | < 100 | < 100 | < 100
